Measured values: publication PMC11973282, “RAS70 peptide targets multiforme glioblastoma by binding to the plasma membrane heat shock protein HSP70” (Frontiers in Oncology, 2025)

How the values were obtained:
[1] = tested on: C6 (rat glioma) cells; assay: Flow cytometry of FITC-labeled peptide internalization, 24 h; format: cell-based; conditions: 50 μg/mL, M ± SE, 3 independent experiments
Procedure: (§1) The binding of the TKD-sCy5, RAS70-sCy5, and NGL-RGD-sCy5 peptides were analyzed using a CytoFLEX flow cytometer (Beckman Coulter, USA). A single cell suspension of C6, GL261, T98G, U87, U251, ANI, IBD, TMS (0.15×10^6 cells in mL^-1) were incubated for 30 minutes on ice in the dark with peptides in concentration of 75 μg/mL, and then washed with cold PBS solution. Cells without peptides were used as controls. To evaluate incorporation of the fluorescently-labeled peptides for longer period of co-incubation of 24 h cells (C6, GL261, U87, U251) were treated with FITC-labeled peptides, then washed with PBS and assessed on a CytoFLEX flow cytometer (Beckman Coulter, USA). Following FACS analysis cell pellet was further evaluated employing confocal microscopy Leica TCS SP8 (Leica Microsystems, Germany).
(§2) The incorporation of peptides over longer periods of co-incubation with brain tumor cells was additionally analyzed using a Cytomics FC500 flow cytometer (BeckmanCoulter, USA). Tumor cells (C6, GL261, U87, U251) were incubated with peptides (concentration 50 μg/mL) for 24 hours, washed with PBS. Internalization of FITC-labeled peptides was assessed by determining the mean fluorescence intensity (MFI). According to the study data ( Figure 6A ), it was shown that TKD peptide accumulated in all cell lines – 2120 ± 152 (C6), 2099 ± 107 (GL261), 2145 ± 189 (U87), 2373 ± 201 (U251) compared to the control scramble peptide (NGL) – 378 ± 48 (C6), 344 ± 57 (GL261), 301 ± 66 (U87), 313 ± 56 (U251) (P<0.001). […] Following FACS analysis the cell pellet was collected and evaluated for peptides cell uptake employing confocal microscopy ( Figure 6B ). The obtained microscopy data confirmed higher accumulation of RAS70 peptide in studied cell lines as compared to TKD or scramble peptides.
(§3) Figure 6 Evaluation of the mHsp70-targeting peptides internalization by glioma cells. (A) Flow cytometric evaluation of FITC-labeled peptide accumulation in tumor cell lines (rat glioma C6, mouse glioma GL261, human glioblastoma U87 and U251) after co-incubation for 24 hours. […] (B) Confocal microscopy assessment of FITC-labeled peptide accumulation in tumor cell lines (rat glioma C6, mouse glioma GL261, human glioblastoma U87 and U251) after co-incubation for 24 hours. […] (C) Analysis of the peptides uptake by human U87 glioblastoma cells following co-incubation for 24 hours.

[2] = tested on: GL261 (mouse glioma) cells; assay: as above; format: cell-based; conditions: 50 μg/mL, M ± SE, 3 independent experiments
Procedure: as §1, §2, §3

[3] = tested on: human glioblastoma U251 cells; assay: as above; format: cell-based; conditions: 50 μg/mL, M ± SE, 3 independent experiments
Procedure: as §1, §2, §3

[4] = tested on: human U87 glioblastoma cells; assay: Flow cytometry of FITC-labeled peptide internalization, 24 h (also with antibody pre-treatment); format: cell-based; conditions: for peptide internalization after pre-treatment with anti-Hsp70 antibodies: cells pre-treated with anti-Hsp70 mAbs SPA-810, SPA-815 (1:250); for peptide uptake after pre-treatment with both anti-Hsp70 and anti-αvβ3/-αvβ5 mAbs: combination of antibodies; for mean fluorescence intensity (MFI), internalization of FITC-labeled peptide: U87, 50 μg/mL, 24 hours, flow cytometry, M ± SE, 3 independent experiments
Procedure: as §1, §2, §3
To evaluate the mHsp70-mediated uptake of the peptides prior to co-incubation with either TKD or RAS70 peptides cells were pre-treated with anti-Hsp70 antibodies (SPA-810, SPA-815) that are known to target the membrane-bound chaperone on cancer cells ([37]). […] The tripeptide RGD (Arg-Gly-Asp) motif is known to bind to integrins, including αvβ3 and αvβ5 expressed on brain tumor cells and tumor endothelial cells ([38], [39]). […] As expected, we observed the decrease of NGL-RGD and RAS70 internalization by tumor cells but not of TKD or NGL peptides ( Figure 6C ).

[5] = tested on: U87 cells (lower chamber; HUVEC and astrocytes barrier); assay: Transwell BBB model, peptide passage and accumulation in tumor cells (also with antibody pre-treatment); format: in vitro ADME, human; conditions: transwell BBB model: HUVEC (5×10^5) and astrocytes (5×10^5) in upper chamber, U87 (1×10^4) in lower chamber; FITC-labeled peptide; 36 hours; confocal microscopy count; M ± SE, 3 independent experiments
From the text: Fluorescently labeled cells were counted in the lower chamber.
Next, we assessed the mHsp70- and integrin (αvβ3, αvβ5)-mediated penetration of the TKD and RAS70 via the BBB ( Figure 9B ). […] When anti-αvβ3 and anti-αvβ5 mAbs were employed, we detected the decrease of NGL-RGD and RAS70 penetration via the BBB but not the NGL and TKD peptides.

Row | SMILES | mean fluorescence intensity (MFI), internalization of FITC-labeled peptide [1] | mean fluorescence intensity (MFI), internalization of FITC-labeled peptide [2] | mean fluorescence intensity (MFI), internalization of FITC-labeled peptide [3] | peptide internalization after pre-treatment with anti-Hsp70 antibodies ([4]; U87, 24 hours) | peptide internalization after pre-treatment with anti-αvβ3 and -αvβ5 antibodies ([4]; U87, 24 hours, cells pre-treated with anti-αvβ3 (LM609) and anti-αvβ5 (P1F6) mAbs (1:200)) | peptide uptake after pre-treatment with both anti-Hsp70 and anti-αvβ3/-αvβ5 mAbs ([4]; U87, 24 hours) | mean fluorescence intensity (MFI), internalization of FITC-labeled peptide [4] | fluorescently labeled tumor cells in the lower chamber [5]
1 | CC(C)C[C@H](NC(=O)[C@H](CC(C)C)NC(=O)[C@H](CC(N)=O)NC(=O)[C@H](CC(N)=O)NC(=O)[C@H](CC(=O)O)NC(=O)[C@H](CCCCN)NC(=O)[C@@H](N)[C@@H](C)O)C(=O)NCC(=O)N[C@@H](CCCNC(=N)N)C(=O)N[C@@H](Cc1ccccc1)C(=O)N[C@@H](CCC(=O)O)C(=O)N[C@@H](CC(C)C)C(=O)N[C@@H](CO)C(=O)NCC(=O)NCCC(=O)N[C@@H](CCCNC(=N)N)C(=O)NCC(=O)N[C@@H](CC(=O)O)C(=O)O [RAS70] | 2671 ± 201 | 3012 ± 182 | 3678 ± 212 | significant decrease | decrease | significant abrogation | 2999 ± 209 | 578 ± 67 cells
2 | CC(C)C[C@H](NC(=O)[C@H](CC(C)C)NC(=O)[C@H](CC(N)=O)NC(=O)[C@H](CC(N)=O)NC(=O)[C@H](CC(=O)O)NC(=O)[C@H](CCCCN)NC(=O)[C@@H](N)[C@@H](C)O)C(=O)NCC(=O)N[C@@H](CCCNC(=N)N)C(=O)N[C@@H](Cc1ccccc1)C(=O)N[C@@H](CCC(=O)O)C(=O)N[C@@H](CC(C)C)C(=O)N[C@@H](CO)C(=O)NCC(=O)O [TKD] | 2120 ± 152 | 2099 ± 107 | 2373 ± 201 | significant decrease | – | significant abrogation | 2145 ± 189 | 337 ± 38 cells
